Like-named read-outs stand apart in the source and are kept apart here.
Tests used:
[1] = test system: LO2 cell lines (normal liver cell); settings: for IC50: read-out: IC50 LO2
HeLa = experiment: cells; format: cell-based; settings: read-out: IC50 against cell proliferation, HeLa
[2] = test system: HepG2 cell lines (liver tumor cell); settings: for IC50: read-out: IC50 HepG2
A549 = experiment: cells; format: cell-based
WI38 normal cells [3] = settings: for IC50: read-out: IC50 WI38
WI38 normal cells [4] = experiment: cells; settings: Homo sapiens, WI-38, read-out: IC50 WI38
[5] = test system: HepG2 cell lines (liver tumor cell); experiment: cells; settings: Homo sapiens, HepG2, 24 h, read-out: IC50 HepG2
[6] = test system: LO2 cell lines (normal liver cell); experiment: cells; settings: Homo sapiens, L02, 24 h, read-out: IC50 LO2
MCF-7 = experiment: cells; format: cell-based
[7] = H2S release, methylene blue (MB+) method; format: physicochemical; settings: MB+ method with TECP or cysteine; different temperature and pH
PI3Kβ = PI3Kβ (Homo sapiens, UniProt P42338); experiment: In vitro PI3K enzyme inhibitory assay (ADP-Glo), PI3Kβ; format: biochemical; settings: read-out: PI3Kβ % inhibition at 10 μM
AKT = experiment: In vitro AKT enzyme inhibitory assay; format: biochemical
PI3Kγ = PI3Kγ (Homo sapiens, UniProt P48736); experiment: In vitro PI3K enzyme inhibitory assay (ADP-Glo), PI3Kγ; format: biochemical; settings: read-out: PI3Kγ % inhibition at 10 μM
PI3Kα = PI3Kα (Homo sapiens, UniProt P42336); experiment: In vitro PI3K enzyme inhibitory assay (ADP-Glo), PI3Kα; format: biochemical; settings: read-out: PI3Kα % inhibition at 10 μM
[8] = Homo sapiens, A549, read-out: IC50 against cell proliferation, A549
[9] = Homo sapiens, MCF7, read-out: IC50 against cell proliferation, MCF-7
[10] = read-out: IC50 against cell proliferation, A549
[11] = read-out: IC50 against cell proliferation, MCF-7

Sequence of PI3Kβ (P42338 whole entry): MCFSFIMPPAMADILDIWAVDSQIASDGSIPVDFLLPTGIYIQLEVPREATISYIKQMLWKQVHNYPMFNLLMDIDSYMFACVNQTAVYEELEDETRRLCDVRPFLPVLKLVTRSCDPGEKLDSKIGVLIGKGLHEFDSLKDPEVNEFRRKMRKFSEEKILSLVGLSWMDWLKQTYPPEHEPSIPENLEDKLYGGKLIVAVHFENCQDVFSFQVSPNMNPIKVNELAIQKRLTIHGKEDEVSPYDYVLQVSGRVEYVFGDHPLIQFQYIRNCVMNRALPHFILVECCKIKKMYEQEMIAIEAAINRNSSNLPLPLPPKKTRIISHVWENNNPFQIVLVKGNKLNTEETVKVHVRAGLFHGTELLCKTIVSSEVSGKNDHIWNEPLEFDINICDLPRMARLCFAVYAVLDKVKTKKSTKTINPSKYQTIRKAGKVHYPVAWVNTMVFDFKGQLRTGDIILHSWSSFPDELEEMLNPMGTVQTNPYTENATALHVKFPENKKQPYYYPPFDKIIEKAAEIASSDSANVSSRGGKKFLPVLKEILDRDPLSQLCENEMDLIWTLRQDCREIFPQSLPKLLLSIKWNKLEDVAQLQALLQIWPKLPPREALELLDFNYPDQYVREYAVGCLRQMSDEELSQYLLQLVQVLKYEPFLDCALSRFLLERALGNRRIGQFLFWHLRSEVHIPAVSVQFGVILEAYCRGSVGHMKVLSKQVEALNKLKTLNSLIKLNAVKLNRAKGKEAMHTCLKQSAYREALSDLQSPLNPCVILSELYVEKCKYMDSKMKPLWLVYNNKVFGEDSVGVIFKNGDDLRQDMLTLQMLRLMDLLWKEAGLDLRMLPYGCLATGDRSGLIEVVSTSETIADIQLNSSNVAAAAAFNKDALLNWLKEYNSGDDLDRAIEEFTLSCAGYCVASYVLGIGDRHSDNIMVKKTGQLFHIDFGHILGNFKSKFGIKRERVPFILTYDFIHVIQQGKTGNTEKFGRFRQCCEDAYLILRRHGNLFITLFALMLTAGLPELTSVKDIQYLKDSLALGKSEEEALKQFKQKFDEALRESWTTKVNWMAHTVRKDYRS
Sequence of PI3Kβ (P27986 whole entry partner): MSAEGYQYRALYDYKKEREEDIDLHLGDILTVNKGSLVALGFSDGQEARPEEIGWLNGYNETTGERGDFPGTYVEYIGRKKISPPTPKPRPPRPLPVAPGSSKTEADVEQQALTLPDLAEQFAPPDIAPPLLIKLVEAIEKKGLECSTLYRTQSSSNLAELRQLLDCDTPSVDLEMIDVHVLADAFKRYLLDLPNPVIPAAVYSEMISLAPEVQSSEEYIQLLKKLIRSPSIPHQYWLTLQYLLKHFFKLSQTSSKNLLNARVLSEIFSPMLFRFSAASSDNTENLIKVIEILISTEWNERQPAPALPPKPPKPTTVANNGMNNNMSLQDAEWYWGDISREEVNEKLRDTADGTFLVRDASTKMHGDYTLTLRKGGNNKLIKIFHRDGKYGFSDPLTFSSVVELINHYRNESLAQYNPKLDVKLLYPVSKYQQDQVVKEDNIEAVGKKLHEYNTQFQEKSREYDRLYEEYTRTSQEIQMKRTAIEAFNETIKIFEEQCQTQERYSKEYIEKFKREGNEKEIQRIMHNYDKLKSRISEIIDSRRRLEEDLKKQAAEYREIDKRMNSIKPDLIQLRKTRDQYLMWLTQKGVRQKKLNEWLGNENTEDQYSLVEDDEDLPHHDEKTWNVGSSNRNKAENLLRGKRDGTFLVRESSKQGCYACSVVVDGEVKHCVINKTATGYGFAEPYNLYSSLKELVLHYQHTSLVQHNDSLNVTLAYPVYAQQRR
Sequence of PI3Kα (P42336 whole entry): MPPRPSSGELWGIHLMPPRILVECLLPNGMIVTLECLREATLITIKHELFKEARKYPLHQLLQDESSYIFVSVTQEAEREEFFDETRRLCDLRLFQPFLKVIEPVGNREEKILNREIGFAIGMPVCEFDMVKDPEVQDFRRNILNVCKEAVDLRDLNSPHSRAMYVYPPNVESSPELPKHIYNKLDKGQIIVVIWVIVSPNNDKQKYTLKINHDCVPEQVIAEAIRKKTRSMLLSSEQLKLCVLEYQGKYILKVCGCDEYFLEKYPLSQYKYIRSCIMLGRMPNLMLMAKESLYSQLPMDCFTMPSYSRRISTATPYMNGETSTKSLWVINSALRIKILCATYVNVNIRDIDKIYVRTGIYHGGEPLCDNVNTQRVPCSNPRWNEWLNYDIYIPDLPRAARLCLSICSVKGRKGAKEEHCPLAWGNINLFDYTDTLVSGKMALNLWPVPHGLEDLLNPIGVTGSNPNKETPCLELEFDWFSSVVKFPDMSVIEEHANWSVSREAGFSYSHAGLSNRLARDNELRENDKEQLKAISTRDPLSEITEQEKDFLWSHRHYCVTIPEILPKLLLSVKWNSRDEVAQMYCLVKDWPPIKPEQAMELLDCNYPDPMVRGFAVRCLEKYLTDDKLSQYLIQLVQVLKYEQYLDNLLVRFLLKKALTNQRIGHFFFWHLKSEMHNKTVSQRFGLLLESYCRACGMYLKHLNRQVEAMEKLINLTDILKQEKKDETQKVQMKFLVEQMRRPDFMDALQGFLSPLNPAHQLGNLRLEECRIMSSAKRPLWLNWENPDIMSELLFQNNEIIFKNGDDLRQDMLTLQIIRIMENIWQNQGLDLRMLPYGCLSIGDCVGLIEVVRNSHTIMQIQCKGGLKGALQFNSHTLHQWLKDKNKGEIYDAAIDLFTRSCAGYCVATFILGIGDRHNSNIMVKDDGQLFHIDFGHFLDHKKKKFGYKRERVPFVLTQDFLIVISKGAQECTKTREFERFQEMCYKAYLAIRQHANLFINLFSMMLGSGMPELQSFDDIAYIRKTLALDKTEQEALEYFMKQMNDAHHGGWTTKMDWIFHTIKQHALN
Sequence of PI3Kα (P27986 whole entry partner): as the sequence (P27986 whole entry partner) above
Sequence of PI3Kγ (P48736 whole entry): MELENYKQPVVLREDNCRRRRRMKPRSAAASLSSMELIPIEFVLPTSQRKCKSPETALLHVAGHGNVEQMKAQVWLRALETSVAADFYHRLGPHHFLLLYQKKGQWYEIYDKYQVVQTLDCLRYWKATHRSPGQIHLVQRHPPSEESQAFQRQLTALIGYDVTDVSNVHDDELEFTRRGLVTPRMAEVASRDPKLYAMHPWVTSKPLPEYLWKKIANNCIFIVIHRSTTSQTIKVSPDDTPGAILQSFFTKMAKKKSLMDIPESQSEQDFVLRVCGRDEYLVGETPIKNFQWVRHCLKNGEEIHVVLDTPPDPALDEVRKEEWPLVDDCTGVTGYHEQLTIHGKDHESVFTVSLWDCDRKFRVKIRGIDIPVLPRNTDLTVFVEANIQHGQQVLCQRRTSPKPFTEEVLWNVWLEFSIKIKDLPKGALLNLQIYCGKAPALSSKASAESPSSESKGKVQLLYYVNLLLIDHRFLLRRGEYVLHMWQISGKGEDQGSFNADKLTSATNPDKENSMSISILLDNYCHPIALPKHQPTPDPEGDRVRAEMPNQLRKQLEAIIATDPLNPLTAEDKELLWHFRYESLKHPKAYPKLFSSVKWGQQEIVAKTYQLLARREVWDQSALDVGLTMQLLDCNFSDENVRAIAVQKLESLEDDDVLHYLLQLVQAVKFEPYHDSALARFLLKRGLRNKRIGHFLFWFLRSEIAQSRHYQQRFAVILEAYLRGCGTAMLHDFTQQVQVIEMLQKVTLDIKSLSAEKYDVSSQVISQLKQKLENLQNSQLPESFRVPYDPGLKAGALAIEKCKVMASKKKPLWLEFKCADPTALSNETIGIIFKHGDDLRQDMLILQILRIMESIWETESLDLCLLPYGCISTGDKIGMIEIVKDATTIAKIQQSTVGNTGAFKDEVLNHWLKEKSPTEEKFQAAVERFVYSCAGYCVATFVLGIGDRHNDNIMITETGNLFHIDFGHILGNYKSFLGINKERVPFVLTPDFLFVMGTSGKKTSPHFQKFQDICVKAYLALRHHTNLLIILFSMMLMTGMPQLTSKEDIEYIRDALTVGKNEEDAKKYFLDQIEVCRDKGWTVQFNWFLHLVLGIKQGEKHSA

Compound | Toxicity in words, LO2 [1] | IC50 (HeLa; Homo sapiens, HeLa) [µM] | Toxicity in words, HepG2 [2] | IC50 (A549; [8]) [µM] | Toxicity in words, WI38 (WI38 normal cells [3]) | IC50 (WI38 normal cells [4]) [µM] | IC50 [5] [µM] | IC50 [6] [µM] | IC50 (MCF-7; [9]) [µM] | IC50 [1] [µM] | IC50 (HeLa) [µM] | IC50 [2] [µM] | IC50 (A549; [10]) [µM] | IC50 (WI38 normal cells [3]) [µM] | IC50 (MCF-7; [11]) [µM] | H2S release amount (in words) [7] | inhibition at 10 µM (PI3Kβ) [%] | AKT % inhibition at 10 μM (AKT) [%] | inhibition at 10 µM (PI3Kγ) [%] | inhibition at 10 µM (PI3Kα) [%]
S=P1(c2ccccc2)NCCO1 (stereo not drawn) [Compound S2, 2-phenyl-1,3,2-oxazaphospholidine 2-sulfide] | low cytotoxicity | 736 ± 22.1 | low cytotoxicity | 650 ± 32.5 | low cytotoxicity | > 200 | > 400 | > 200 | 455 ± 3.2 | – | – | – | – | – | – | – | – | – | – | –
S=P1(c2ccccc2)NCCCO1 (stereo not drawn) [Compound S3, 2-phenyl-1,3,2-oxazaphosphinane 2-sulfide] | low cytotoxicity | 826 ± 17.1 | low cytotoxicity | 700 ± 32.3 | low cytotoxicity | > 200 | > 400 | > 200 | 470 ± 4.1 | – | – | – | – | – | – | – | – | – | – | –
S=P1(c2ccccc2)NCCCCO1 (stereo not drawn) [Compound S4, 2-phenyl-1,3,2-oxazaphosphepane 2-sulfide] | low cytotoxicity | 836 ± 19.7 | low cytotoxicity | 720 ± 22.4 | low cytotoxicity | > 200 | > 400 | > 200 | 472 ± 3.3 | – | – | – | – | – | – | – | – | – | – | –
S=P1(c2ccccc2)NCCCCCO1 (stereo not drawn) [Compound S5, 2-phenyl-1,3,2-oxazaphosphocane 2-sulfide] | low cytotoxicity | 622 ± 20.6 | low cytotoxicity | 680 ± 20.5 | low cytotoxicity | > 200 | > 400 | > 200 | 468 ± 3.4 | – | – | – | – | – | – | – | – | – | – | –
S=P1(c2ccccc2)NCCCCCCO1 (stereo not drawn) [Compound S6, 2-phenyl-1,3,2-oxazaphosphonane 2-sulfide] | low cytotoxicity | 645 ± 15.5 | low cytotoxicity | 710 ± 22.6 | low cytotoxicity | > 200 | > 400 | > 200 | 471 ± 5.4 | – | – | – | – | – | – | – | – | – | – | –
S=P1(c2ccccc2)NCCCCN1 [Compound S7, 2-phenyl-1,3,2-diazaphosphepane 2-sulfide] | low cytotoxicity | 655 ± 15.3 | low cytotoxicity | 730 ± 32.3 | low cytotoxicity | > 200 | > 400 | > 200 | 473 ± 4.2 | – | – | – | – | – | – | – | – | – | – | –
S=P1(c2ccccc2)OCCCCO1 [Compound S8, 2-phenyl-1,3,2-dioxaphosphepane 2-sulfide] | low cytotoxicity | – | low cytotoxicity | – | low cytotoxicity | – | – | – | – | > 200 | 730 ± 20.5 | > 400 | 803 ± 20.8 | > 200 | 480 ± 3.8 | – | – | – | – | –
S=P1(c2ccccc2)NCNCN1 [Compound S9, 2-phenyl-1,3,5,2-triazaphosphinane 2-sulfide] | low cytotoxicity | 730 ± 20.7 | low cytotoxicity | 590 ± 27.1 | low cytotoxicity | > 200 | > 400 | > 200 | 459 ± 3.7 | – | – | – | – | – | – | – | – | – | – | –
S=P1(c2ccccc2)SCCS1 [Compound S10, 2-phenyl-1,3,2-dithiaphospholane 2-sulfide] | low cytotoxicity | 603 ± 20.8 | low cytotoxicity | 557 ± 18.5 | low cytotoxicity | > 200 | > 400 | > 200 | 455 ± 2.4 | – | – | – | – | – | – | – | – | – | – | –
S=P1(c2ccccc2)Oc2ccccc2-c2ccccc2O1 [Compound S12, 6-phenyldibenzo [d, f][1,3,2] dioxaphosphepine 6-sulfide] | low cytotoxicity | 703 ± 17.7 | low cytotoxicity | 640 ± 15.5 | low cytotoxicity | > 200 | > 400 | > 200 | 164 ± 4.1 | – | – | – | – | – | – | – | – | – | – | –
S=P1(c2ccccc2)OCc2ccccc2CO1 [Compound S13, 3-phenyl-1,5-dihydrobenzo [e] [1,3,2] dioxaphosphepine 3-sulfide] | low cytotoxicity | 633 ± 18.3 | low cytotoxicity | 500 ± 18.2 | low cytotoxicity | > 200 | > 400 | > 200 | 460 ± 3.5 | – | – | – | – | – | – | – | – | – | – | –
Cc1ccc2c(c1)NP(=S)(c1ccccc1)O2 (stereo not drawn) [Compound S14, 5-methyl-2-phenyl-3H benzo [d][1,3,2] oxazaphosphole 2-sulfide] | – | – | – | – | – | – | – | – | – | > 200 | 530 ± 11.3 | > 400 | 220 ± 20.1 | > 200 | 31 ± 2.5 | the highest amount of hydrogen sulfide was released | – | – | – | –
S=P1(c2ccccc2)Oc2ccc3cccc4c5cccc6ccc(c(c2c34)c65)O1 [Compound S15, 2-phenylperyleno [1,12-def][1,3,2] dioxaphosphepine 2-sulfide] | – | 733 ± 28.2 | – | 520 ± 22.7 | – | > 200 | > 400 | > 200 | 266 ± 3.5 | – | – | – | – | – | – | – | – | – | – | –
N#Cc1ccc2c(c1)NP(=S)(c1ccccc1)O2 (stereo not drawn) [Compound S16, 2-phenyl-3H-benzo [d][1,3,2] oxazaphosphole-5-carbonitrile 2-sulfide] | – | – | – | – | – | – | – | – | – | > 200 | 520 ± 20.3 | > 400 | 280 ± 28.3 | > 200 | 28 ± 2.7 | the highest amount of hydrogen sulfide was released | – | – | – | –
Oc1cccc(-c2nc(N3CCOCC3)c3oc4ncccc4c3n2)c1 [PI-103, reference compound] | – | – | – | – | – | – | – | – | – | – | – | – | – | – | – | – | 5 | 100 | 12 | 100

From paper PMC11790660 (Frontiers in Chemistry, 2025)
